# Source: patent publication EP0882732B1, “Taxoid derivative and method of producing thereof” (Ensuiko Sugar Refining Company, Limited, priority 1997, dated 1998)
# Experiments:
# [1] = Solubility in water (stirred in water, filtrate analysed by HPLC)
# Procedure: After stirring, the supernatant was filtered by a membrane filter (0.45µm) and a filtate was analyzed by HPLC.
# [2] = system: tubulin (a main constituting protein of the microtubule); experiment: Tubulin polymerization-promoting / depolymerization-inhibiting activity (absorbance at 350 nm); assay type: biochemical; conditions: for Depolymerization-inhibiting activity / Polymerization-promoting activity: relative activity, paclitaxel taken as 100, 5µM; for Depolymerization-inhibiting activity: absorbance at 350 nm 5 minutes after addition of calcium chloride; for Polymerization-promoting activity: tubulin, 37°C, 15 minutes, absorbance at 350 nm
# Procedure: Next, each of the above-described samples is mixed with tubulin (a main constituting protein of the microtubule) and allowed to react at 37°C for 15 minutes. Absorbance at 350 nm of the reaction solution was measured at 2, 5, 10 and 15 minutes after initiation of the reaction. Also, after the reaction ended, calcium chloride was added and. 5 minutes after its addition, absorbance at 350 nm was again measured. From each measured value the relative activity of each sample was determined such that polymerization-promoting activity and depolymerization - inhibiting activity were taken as 100, and the results are shown in Table 2.
# [3] = Stability in aqueous solution; assay type: physicochemical; conditions: decomposed to paclitaxel
# Source text: As clearly shown in the Table compared with paclitaxel, the solubility of paclitaxel derivatives show strikingly high values.
# [4] = I.Ringer et al., J. Natl. Cancer Inst., 83, 288 (1991); cited from earlier work
# [5] = in water, 10 mg in 5 ml water, stirred for 18 hours, filtered 0.45µm, HPLC
SMILES,Solubility ([1]; 18 h) [µg/mL],"solubility at 18 h ([1]; water, thermodynamic from solid) [µg/mL]",Depolymerization-inhibiting activity [2],Polymerization-promoting activity [2],solubility in water relative to paclitaxel [1] [times],"Solubility [1, 5] [µg/mL]",stability in aqueous solutions [3],"depolymerization-inhibiting activity compared with paclitaxel ([2]; statement in words, comparison with paclitaxel)",solubility of docetaxel in water relative to paclitaxel [4] [times]
"CC(=O)O[C@H]1C(=O)[C@@]2(C)[C@H]([C@H](OC(=O)c3ccccc3)[C@]3(O)C[C@H](OC(=O)[C@H](O)[C@@H](NC(=O)c4ccccc4)c4ccccc4)C(C)=C1C3(C)C)[C@]1(OC(C)=O)CO[C@@H]1C[C@@H]2O [Paclitaxel, reference compound]",0.4,0.4,100,100,,,,,
"CC(=O)O[C@H]1C(=O)[C@@]2(C)[C@H]([C@H](OC(=O)c3ccccc3)[C@]3(O)C[C@H](OC(=O)[C@H](OC(=O)COC4O[C@H](CO)[C@@H](O)[C@H](O)[C@H]4O)[C@@H](NC(=O)c4ccccc4)c4ccccc4)C(C)=C1C3(C)C)[C@]1(OC(C)=O)CO[C@@H]1C[C@@H]2O (some centres unmarked) [2'-S-paclitaxel, Glucosyloxyacetyl-2'-paclitaxel]",,,100,52.7,76.5,30.6,unstable in aqueous solutions,,
"CC(=O)O[C@H]1C(=O)[C@]2(C)[C@@H](OC(=O)COC3O[C@H](CO)[C@@H](O)[C@H](O)[C@H]3O)C[C@H]3OC[C@@]3(OC(C)=O)[C@H]2[C@H](OC(=O)c2ccccc2)[C@]2(O)C[C@H](OC(=O)[C@H](OC(=O)COC3O[C@H](CO)[C@@H](O)[C@H](O)[C@H]3O)[C@@H](NC(=O)c3ccccc3)c3ccccc3)C(C)=C1C2(C)C (some centres unmarked) [2',7-S-paclitaxel, Diglucosyloxyacetyl-2',7-paclitaxe]",,,77.7,40.5,121,48.4,unstable in aqueous solutions,,
"CC(=O)O[C@H]1C(=O)[C@]2(C)[C@@H](OC(=O)COC3O[C@H](CO)[C@@H](O)[C@H](O)[C@H]3O)C[C@H]3OC[C@@]3(OC(C)=O)[C@H]2[C@H](OC(=O)c2ccccc2)[C@]2(O)C[C@H](OC(=O)[C@H](O)[C@@H](NC(=O)c3ccccc3)c3ccccc3)C(C)=C1C2(C)C (some centres unmarked) [7-S-paclitaxel, Glucosyloxyacetyl-7-paclitaxel]",,,225,91.9,36.8,14.7,,more than twice as potent as that of paclitaxel,
CC(=O)O[C@@]12CO[C@@H]1C[C@H](O)[C@@]1(C)C(=O)[C@H](O)C3=C(C)[C@@H](OC(=O)[C@H](O)[C@@H](NC(=O)OC(C)(C)C)c4ccccc4)C[C@@](O)([C@@H](OC(=O)c4ccccc4)[C@H]21)C3(C)C [docetaxel],,,,,,,,,1.3
